Here are results for 10 molecules from patent US20240376073A1 (Hoffmann-La Roche Inc., priority 2021, published 2024).

Counter-ions that a name gives are not always drawn.

The first assay deals with Acinetobacter baumannii ATCC17961. Briefly: Antimicrobial susceptibility testing: 90% growth inhibitory concentration (IC90) determination. Type of assay: cell-based. Conditions: Acinetobacter baumannii ATCC17961; Iso-Sensitest broth; growth by OD 600 nm over 16 h; 35±2° C.; read-out: ATCC 17961 IC90. A digest of the protocol:
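Twofold serial dilutions (e.g. 50 to 0.097 μM final) in Iso-Sensitest broth, inoculated at ~5×10^(5) CFU/ml, incubated at 35±2° C. OD600 read every 20 min over 16 h; IC90 derived from growth inhibition during logarithmic growth.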
Consider `COc1ccc(-c2cnc(C(=O)Nc3ccc(C(=O)N4CCN(C(=O)CCC[N+](CCCN)(CCCN)CC(=O)O)CC4)c(Cl)c3)n2C)c(F)c1F` [Example C34, bis(3-aminopropyl)-(carboxymethyl)-[4-[4-[2-chloro-4-[[5-(2,3-difluoro-4-methoxy-phenyl)-1-methyl-imidazole-2-carbonyl]amino]benzoyl]piperazin-1-yl]-4-oxo-butyl]ammonium; formate], for which the IC90 amounted to 570 nM.

Take `Cn1c(-c2ccc(OC(F)F)c(F)c2F)cnc1C(=O)Nc1ccc(C(=O)N2CCN(C(=O)C3CC[N+](C)(CC4CNC4)CC3)CC2)c(F)c1` (stereo not shown) [Example C42, N-[4-[4-[1-(azet-idin-3-ylmethyl)-1-methyl-piper-idin-1-ium-4-carbonyl]piper-azine-1-carbon-yl]-3-fluoro-phenyl]-5-[4-(difluorometh-oxy)-2,3-difluoro-phenyl]-1-methyl-imidazole-2-car-boxamide; 2,2,2-trifluoroacetate; 2,2,2-trifluoro-acetic acid]: the IC90 is 100 nM.

In the case of `COc1ccc(-c2cnc(C(=O)Nc3ccc(C(=O)N4CCC(NC(=O)[C@@H]5C[C@@H](O)C[N+]5(C)C)CC4)c(Cl)c3)n2C)c(F)c1F` [Example C43, N-[3-chloro-4-[4-[[(2S,4R)-4-hydroxy-1,1-dimethyl-pyrrolidin-1-ium-2-carbonyl]amino]piperidine-1-carbonyl]phenyl]-5-(2,3-difluoro-4-methoxy-phenyl)-1-methyl-imidazole-2-carboxamide;formate], the IC90 stood at 290 nM.

The same assay, now with this note: Acinetobacter baumannii, ATCC17961, 16 h, read-out: ATCC 17961 IC90, Acinetobacter baumannii ATCC17961; Iso-Sensitest broth; growth by OD 600 nm over 16 h; 35±2° C.
As for `COc1ccc(-c2cnc(C(=O)Nc3ccc(C(=O)N4CCN(C(=O)C5CC[N+](CC(=O)O)(CC6CNC6)CC5)CC4)c(Cl)c3)n2C)c(F)c1F` (stereo not shown) [Example C33, 2-[1-(azetidin-3-ylmethyl)-4-[4-[2-chloro-4-[[5-(2,3-difluoro-4-methoxy-phenyl)-1-methyl-imidazole-2-carbonyl]amino]benzoyl]piperazine-1-carbonyl]piperidin-1-ium-1-yl]acetic acid; formate], the IC90 was found to be 490 nM.

In the case of `COc1ccc(-c2cnc(C(=O)Nc3ccc(C(=O)N4CCN(C(=O)CCC[N+](C)(CCCN)CC(=O)O)CC4)c(Cl)c3)n2C)c(F)c1F` (stereo not shown) [Example C35, 3-aminopropyl-(carboxymethyl)-[4-[4-[2-chloro-4-[[5-(2,3-difluoro-4-methoxy-phenyl)-1-methyl-imidazole-2-carbonyl]amino]beuzoyl]piperazin-1-yl]-4-oxo-butyl]-methyl-ammonium formate], the IC90 was determined as 510 nM.

Regarding `COc1ccc(-c2cnc(C(=O)Nc3ccc(C(=O)N4CCN(C(=O)N5CC[N+](C)(CC(=O)O)CC5)CC4)c(Cl)c3)n2C)c(F)c1F` [Example C36, 2-[4-[4-[2-chloro-4-[[5-(2,3-difluoro-4-methoxy-phenyl)-1-methyl-imidazole-2-carbonyl]amino]benzoyl]piperazine-1-carbonyl]-1-methyl-piperazin-1-ium-1-yl]acetic acid formate], the IC90 was 1100 nM.

Turning to `COc1ccc(-c2cnc(C(=O)Nc3ccc(C(=O)N4CCN(C(=O)N5C[C@@H]6C[N+](CCCN)(CC(=O)O)C[C@@H]6C5)CC4)c(Cl)c3)n2C)c(F)c1F` (stereo partly shown) [Example C37, hydrochloride], the concentration for an effect of 90% (IC90) is 340 nM.

On to `COc1ccc(-c2cnc(C(=O)Nc3ccc(C(=O)N4CCN(C(=O)N5CC[N+](CCCN)(CC(=O)O)CC5)CC4)c(Cl)c3)n2C)c(F)c1F` [Example C38, 2-[1-(3-aminopropyl)-4-[4-[2-chloro-4-[[5-(2,3-difluoro-4-methoxy-phenyl)-1-methyl-imidazole-2-carbonyl]amino]benzoyl]piperazine-1-carbonyl]piperazin-1-ium-1-yl]acetic acid formate], for which the IC90 was determined as 730 nM.

On to `COc1ccc(-c2cnc(C(=O)Nc3ccc(C(=O)N4CCN(C(=O)C5CC[N+](CC(=O)O)(CC6CNC6)CC5)CC4)c(Cl)c3)n2C)c(Cl)c1F` (stereo not shown) [Example C40, 2-[1-(azetidin-3-ylmethyl)-4-[4-[2-chloro-4-[[5-(2-chloro-3-fluoro-4-methoxy-phenyl)-1-methyl-imidazole-2-carbonyl]amino]benzoyl]piperazine-1-carbonyl]piperidin-1-ium-1-yl]acetic acid; formate], for which the concentration for an effect of 90% (IC90) is 540 nM.

For the molecule `Cn1c(-c2ccc(OCF)c(F)c2Cl)cnc1C(=O)Nc1ccc(C(=O)N2CCN(C(=O)C3CC[N+](CC(=O)O)(CC4CNC4)CC3)CC2)c(Cl)c1` (stereo not shown) [Example C41, 2-[1-(azetidin-3-ylmethyl)-4-[4-[2-chloro-4-[[5-[2-chloro-3-fluoro-4-(fluoromethoxy)phenyl]-1-methyl-imidazole-2-carbonyl]amino]benzoyl]piperazine-1-carbonyl]piperidin-1-ium-1-yl]acetic acid formate], the IC90 amounted to 480 nM.

For orientation: IC90 means the concentration needed for an effect of 90%.
